Results on ten compounds are retold here after PubChem BioAssay (NCI).

Structures are written as SMILES.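 Grown in 96-well plates, cells were treated for 48 hours with each compound at five concentrations. Insufficient inhibition: endpoint recorded as highest concentration tested. TGI denotes the concentration required for complete inhibition of growth.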

Holding throughout (experiment): NCI tumour cell line growth inhibition, 48 h
Assay [1] deals with ACHN renal.
In assay [2] the test system is HCT-15 colon.
The subject of assay [3] is HOP-62 NSCLC.
Assay [4] concerns IGROV1 ovarian.
Assay [5] concerns K-562 leukemia.
The subject of assay [6] is KM12 colon.
The subject of assay [7] is MOLT-4 leukemia.
For assay [8], the system named is RXF 393 renal.
The subject of assay [9] is SF-539 CNS.
Assay [10] has as its system T-47D breast.

For the compound `CC(=O)OC(C)(C)CCC(=O)[C@](C)(O)[C@H]1[C@H](O)C[C@@]2(C)[C@@H]3CCc4c(cc(OC5OC(CO)C(O)C(O)C5O)c(O)c4C)C3(C)C(=O)C[C@]12C` (stereo not given in full), the TGI in [1], in assay [2], in [3], in assay [4], in assay [5] and in assay [6] was > 100 µM each time. Besides, the TGI in assay [7], in [8], in [9] and in [10] was > 100 µM each time.
On to `O=C1CC(=O)NC(=NNS(=O)(=O)c2ccc(Cl)cc2)N1`, for which the TGI in [1], in assay [2], in assay [3], in [4], in assay [5] and in assay [6] was > 100 µM each time. The TGI in assay [7], in [8], in [9] and in assay [10] was > 100 µM throughout.
In the case of `O=c1cc(-c2ccccc2)[nH]c2nccn12`, the TGI in [1], in assay [2], in [3], in assay [4], in assay [5] and in [6] was > 10 µM throughout. The TGI in assay [7], in assay [8], in assay [9] and in [10] was > 10 µM each time.
On to `O=CN1CCN(C(=O)c2ccc(Cl)c(Cl)c2)C1=S`, for which the TGI in [1] was 31.6 µM; in assay [2], 43 µM; in [3], 32.9 µM; in assay [4], 30.9 µM; in assay [5], > 100 µM; in assay [6], 30.3 µM. Further, the TGI is 53.8 µM in assay [7], 35 µM in assay [8], 37 µM in assay [9] and 58 µM in [10].
`O=[N+]([O-])c1ccc(NNN=Nc2ccc(-c3nc4ccccc4s3)cc2)c([N+](=O)[O-])c1`: the TGI was 57.3 µM in [1]; 66.4 µM in assay [2]; 48.4 µM in assay [3]; 49.5 µM in assay [4]; 86.2 µM in assay [5]; > 100 µM in assay [6]. The TGI is 53.5 µM in assay [7], 50.5 µM in assay [8], 42.4 µM in assay [9] and > 100 µM in assay [10].
Regarding `CCOc1cc2c(c(OCC)c1O)CC[C@@H]1[C@@H]2CC[C@]2(C)[C@@H](O)CC[C@@H]12`, the TGI is 57.4 µM in assay [1]; 14 µM in assay [2]; 40.5 µM in [3]; > 100 µM in [4]; 23.7 µM in assay [5]; 72.5 µM in [6]. Further, the TGI was > 100 µM in assay [7], 17.1 µM in assay [8], 6.71 µM in [9] and 54.3 µM in [10].
Take `CNc1nc(C(N)=O)c(N)s1`: the TGI in assay [1], in assay [2], in [3], in [4], in assay [5] and in [6] was > 100 µM throughout. Besides, the TGI in [7], in [8], in assay [9] and in assay [10] was > 100 µM in each case.
Consider `COc1cccc(C2c3cc4c(cc3OC(Nc3ccccc3)C2C)OCO4)c1OC` (stereo not given), for which the TGI in [1], in [2], in assay [3], in [4], in [5] and in assay [6] was > 100 µM throughout. Also, the TGI in [7] is 17.9 µM; in assay [8] it was > 100 µM; in assay [9] it was > 100 µM; in assay [10], > 100 µM.
As for `CC1C(C#N)(C#N)C(C#N)=C(N)C1(Cl)[N+](=O)[O-]` (stereo not given), the TGI is 23.7 µM in assay [1]; 13.1 µM in [2]; 9.72 µM in assay [3]; 22.5 µM in assay [4]; > 100 µM in assay [5]; 34.4 µM in assay [6]. In addition, the TGI worked out at 11.6 µM in assay [7], 17.4 µM in assay [8], 25.2 µM in assay [9] and 42.7 µM in [10].
Consider `Cc1cc(S(=O)(=O)/N=C(\[N-]S(=O)(=O)c2cc(Cl)sc2Cl)[n+]2ccc(N(C)C)cc2)c(S)cc1Cl`, for which the TGI in assay [1], in [2], in assay [3], in assay [4], in [5] and in assay [6] was > 100 µM in each case. The TGI in assay [7], in assay [8], in assay [9] and in assay [10] was > 100 µM each time.
